Where two headings read alike, the source gives them in different places.
Key:
FabF [1] = target: T1, FabF (Staphylococcus aureus, UniProt Q8NXE1); format: biochemical
T1 sequence (Q8NXE1 1-414): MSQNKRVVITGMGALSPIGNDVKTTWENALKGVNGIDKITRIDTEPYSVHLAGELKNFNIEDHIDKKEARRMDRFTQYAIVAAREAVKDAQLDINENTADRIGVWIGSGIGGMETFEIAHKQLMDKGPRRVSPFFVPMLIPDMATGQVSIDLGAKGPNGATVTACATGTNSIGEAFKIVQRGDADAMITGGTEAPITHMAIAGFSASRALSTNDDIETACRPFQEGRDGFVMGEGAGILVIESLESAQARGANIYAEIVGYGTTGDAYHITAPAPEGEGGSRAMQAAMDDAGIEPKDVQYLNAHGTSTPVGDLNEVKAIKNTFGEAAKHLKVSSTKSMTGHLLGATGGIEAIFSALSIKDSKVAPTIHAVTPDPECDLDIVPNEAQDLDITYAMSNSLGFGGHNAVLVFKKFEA

FabF [2] = target: T1, FabF; experiment: […]-malonyl-CoA FASII elongation assay; format: biochemical

Substance fasamycin A [compound 1] has an IC50 (FabF [1]) of 50 mg/L.
For fasamycin B [compound 2], the IC50 (FabF [2]) was 80 mg/L.
